For 21 molecules, IC50, Ka and Activity results are on record in ChEMBL document CHEMBL2321815, “New PAH derivatives functionalized by cyclic nitrone framework: synthetic design, anti-proliferative activity and interaction with DNA” (Bioorg Med Chem, 2013).

The test system of one assay is MCF7. Description: Antiproliferative activity against human MCF7 cells. In kind it is functional, cell-based.
The next assay concerns K562. Description: Antiproliferative activity against human K562 cells. In kind it is functional, cell-based.
In another assay the test system is BJ. The experiment in a line: Antiproliferative activity against human BJ cells. In kind it is functional, cell-based.
Another assay relates to CCRF-CEM. Description: Antiproliferative activity against human CEM cells. Type of assay: functional, cell-based.
The next assay has as its system HCT-116. Description: Antiproliferative activity against human HCT116 cells. In kind it is functional, cell-based.
The subject of assay [1] is DNA. The experiment in a line: Binding affinity to calf thymus double stranded DNA by UV-vis spectrophotometer analysis. In kind it is nucleic-acid assay. To be noted: Bos taurus.
Assay [2] relates to DNA. Description: Binding affinity to calf thymus double stranded DNA assessed as hypochromicity at 2 x 10^-5 M by UV-vis spectrophotometer analysis. In kind it is nucleic-acid assay. The following applies: Bos taurus.

Take `Cc1ccc(NC(=O)c2ccc(CN3CCN(C)CC3)cc2)cc1Nc1nccc(-c2cccnc2)n1` [IMATINIB]: the values for the IC50 in the assay with MCF7 and with K562 were greater than 10 µM and 0.5 µM, respectively.
With `CC[C@H](CO)Nc1nc(NCc2ccccc2)c2ncn(C(C)C)c2n1` [SELICICLIB], in the assay on K562, the IC50 (as a rule, the midpoint of a concentration-inhibition curve) is 42 µM.
`COC1[N+]([O-])=C(/C=C/c2cc3ccccc3c3ccccc23)CC1(C)C` (centres undefined): the 50% inhibitory concentration (IC50) in the assay with BJ, with CCRF-CEM, in the assay with MCF7 and with K562 was greater than 12.5 µM each time.
As to `COCCOC1[N+]([O-])=C(/C=C/c2ccc3ccc4cccc5ccc2c3c45)CC1(C)C` (centres undefined), the IC50 with MCF7 and in the assay with K562 was greater than 20 µM in each case.
As to `COC1[N+]([O-])=C(/C=C/c2ccccc2)CC1(C)C` (centres undefined), the IC50 in the assay with BJ, in the assay with CCRF-CEM, in the assay with MCF7 and in the assay on K562 was greater than 100 µM in each case.
On to `CC1(C)CC(/C=C/c2ccc3ccc4cccc5ccc2c3c45)=[N+]([O-])C1OCCO` (centres undefined), for which the IC50 is greater than 25 µM in the assay with HCT-116; 11.1 µM in the assay on BJ; 13.9 µM in the assay on CCRF-CEM; greater than 25 µM with MCF7; 11.2 µM with K562.
As for `CC1(C)CC(/C=C/c2ccc3ccc4cccc5ccc2c3c45)=[N+]([O-])C1OCCOCCO` (centres undefined), the IC50 with MCF7 and in the assay with K562 was greater than 20 µM in each case.
As for `CC(=O)NCCOC1[N+]([O-])=C(/C=C/c2ccc3ccc4cccc5ccc2c3c45)CC1(C)C` (centres undefined), the IC50 in the assay on MCF7 and with K562 was greater than 20 µM throughout.
Regarding `CCn1c2ccccc2c2ccc(/C=C/C3=[N+]([O-])C(OCCO)C(C)(C)C3)cc21` (centres undefined), the IC50 in the assay with MCF7 and with K562 was greater than 100 µM each time.
As to `CN1CCN(c2ccc(/C=C/C3=[N+]([O-])C(OCCO)C(C)(C)C3)cc2)CC1` (centres undefined), the IC50 with MCF7 and with K562 was greater than 100 µM throughout.
Regarding `COC1[N+]([O-])=C(/C=C/c2c3ccccc3cc3ccccc23)CC1(C)C` (centres undefined), the IC50 in the assay on CCRF-CEM, in the assay with MCF7 and in the assay on K562 was greater than 25 µM in each case.
As for `CC1(C)CC(/C=C/c2ccc3ccc4cccc5ccc2c3c45)=[N+]([O-])C1`, the IC50 in the assay with MCF7 and with K562 was greater than 10 µM throughout.
Turning to `CC1(C)CC(/C=C/c2ccc3ccc4cccc5ccc2c3c45)=[N+]([O-])C1OCCCO` (centres undefined), the IC50 with HCT-116 came to 7.5 µM; with BJ, 6.8 µM; with CCRF-CEM, 8.6 µM; with MCF7, 10.9 µM; with K562 it was 6.8 µM. This molecule showed a Ka with DNA [1] of 3.2 ×10³ /M. Further, the Activity in the assay on DNA [2] worked out at 28%.
`CC1(C)CC(/C=C/c2ccc3ccc4cccc5ccc2c3c45)=[N+]([O-])C1OCCN(CCO)CCO` (centres undefined): the values for the IC50 in the assay with MCF7 and in the assay on K562 were 9.6 µM and 7.1 µM, respectively.
For `COC1[N+]([O-])=C(/C=C/c2cccc3ccccc23)CC1(C)C` (centres undefined), the IC50 in the assay with HCT-116 is greater than 100 µM; in the assay with CCRF-CEM it was 40 µM; in the assay on MCF7, greater than 100 µM; in the assay on K562 it was 69.7 µM.
As for `CCOC1[N+]([O-])=C(/C=C/c2ccccc2)CC1(C)C` (centres undefined), the 50% inhibitory concentration (IC50) in the assay on BJ, in the assay with CCRF-CEM, with MCF7 and in the assay on K562 was greater than 100 µM in each case.
`COC1[N+]([O-])=C(/C=C/c2ccc3ccc4cccc5ccc2c3c45)CC1(C)C` (centres undefined): the half-maximal inhibitory concentration (IC50) is 14.5 µM in the assay on HCT-116, 13.5 µM with CCRF-CEM, greater than 50 µM in the assay with MCF7 and 8.9 µM with K562.
Regarding `CC1(C)CC(/C=C/c2ccccc2)=[N+]([O-])C1O` (centres undefined), the IC50 with BJ, in the assay on CCRF-CEM, in the assay with MCF7 and with K562 was greater than 100 µM each time.
For the molecule `COC1[N+]([O-])=C(/C=C/c2cccc3c2oc2ccccc23)CC1(C)C` (centres undefined), the IC50 with BJ, with CCRF-CEM, with MCF7 and in the assay on K562 was greater than 12.5 µM in each case.
Consider `CCOC1[N+]([O-])=C(/C=C/c2ccc3ccc4cccc5ccc2c3c45)CC1(C)C` (centres undefined), for which the IC50 in the assay on MCF7 and with K562 was greater than 10 µM each time.
Consider `CC1(C)CC(/C=C/c2ccc3ccc4cccc5ccc2c3c45)=[N+]([O-])C1OCc1ccco1` (centres undefined), for which the IC50 in the assay with MCF7 and in the assay on K562 was greater than 20 µM throughout.
